According to the supplement of paper PMC10307832:

Key:
Experiment in all cases: relative viability (nuclei count vs DMSO), 5 days (fraction); higher = more cells survive
[1] = compound: Cc1ccc(-n2nc(C(C)(C)C)cc2NC(=O)Nc2ccc(OCCN3CCOCC3)c3ccccc23)cc1 [Doramapimod] + CC1(C)CCC(c2ccc(Cl)cc2)=C(CN2CCN(c3ccc(C(=O)NS(=O)(=O)c4ccc(N[C@H](CCN5CCOCC5)CSc5ccccc5)c(S(=O)(=O)C(F)(F)F)c4)cc3)CC2)C1 [Navitoclax] (partner 0.5 µM)
Summary of the method: (§1)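 After 5 days of treatment, lung cancer cells in 1536-well plates were fixed and stained in a single step (final 0.05% Triton X-100, 1% formaldehyde, 1 ug/ml Hoechst) and their nuclei counted on 4× images. Treatment had been applied by pin tool the day after seeding as one drug alone or as a fixed anchor-drug dose with five library-drug doses (not always all listed) in √10 steps. Relative viability is the nuclei count of treated wells divided by that of vehicle wells, and values are medians of duplicate plates.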

[2] = compound: Cn1c(Nc2ccc(C(F)(F)F)cc2)nc2cc(Oc3ccnc(-c4ncc(C(F)(F)F)[nH]4)c3)ccc21 [RAF265] + CS(=O)(=O)CCNCc1ccc(-c2ccc3ncnc(Nc4ccc(OCc5cccc(F)c5)c(Cl)c4)c3c2)o1 [Lapatinib] (partner 2 µM)
Summary of the method: as §1

[3] = compound: Cn1c(Nc2ccc(C(F)(F)F)cc2)nc2cc(Oc3ccnc(-c4ncc(C(F)(F)F)[nH]4)c3)ccc21 [RAF265] + CC(=O)c1c(C)c2cnc(Nc3ccc(N4CCNCC4)cn3)nc2n(C2CCCC2)c1=O [Palbociclib] (partner 0.5 µM)
Summary of the method: as §1

[4] = compound: Cn1c(Nc2ccc(C(F)(F)F)cc2)nc2cc(Oc3ccnc(-c4ncc(C(F)(F)F)[nH]4)c3)ccc21 [RAF265] + CCNC(=O)c1noc(-c2cc(C(C)C)c(O)cc2O)c1-c1ccc(CN2CCOCC2)cc1 [Luminespib] (partner 0.01 µM)
Summary of the method: as §1

Row | Cell Line | relative viability ([1]; first compound 0.02 µM) | relative viability ([1]; first compound 0.06325 µM) | relative viability ([1]; first compound 0.2 µM) | relative viability ([1]; first compound 0.6325 µM) | relative viability ([1]; first compound 2 µM) | relative viability ([2]; first compound 0.01 µM) | relative viability ([2]; first compound 0.03162 µM) | relative viability ([2]; first compound 0.1 µM) | relative viability ([2]; first compound 0.3162 µM) | relative viability ([2]; first compound 1 µM) | relative viability ([3]; first compound 0.01 µM) | relative viability ([3]; first compound 0.03162 µM) | relative viability ([3]; first compound 0.1 µM) | relative viability ([3]; first compound 0.3162 µM) | relative viability ([3]; first compound 1 µM) | relative viability ([4]; first compound 0.01 µM) | relative viability ([4]; first compound 0.03162 µM) | relative viability ([4]; first compound 0.1 µM) | relative viability ([4]; first compound 1 µM) | relative viability ([4]; first compound 0.3162 µM)
1 | HCC-78 | 0.834 | 0.81 | 0.81 | 0.874 | 0.777 | 0.902 | 0.702 | 1.24 | 0.938 | 0.209 | 0.513 | 0.476 | 0.458 | 0.394 | 0.463 |  |  |  |  | 
2 | HCC-366 | 1.05 | 1 | 1.03 | 0.978 | 0.901 | 1.03 | 1.08 | 1.23 | 1.02 | 1.05 | 0.403 | 0.312 | 0.286 | 0.205 | 0.137 |  |  |  |  | 
3 | HCC-827 | 1.01 | 0.959 | 0.984 | 1 | 0.829 | 0.186 | 0.197 | 0.196 |  | 0.147 | 0.462 | 0.494 | 0.489 |  | 0.395 | 0.837 | 0.652 | 0.74 | 0.132 | 
4 | HOP-62 | 1.1 | 1.1 | 1.17 | 1.04 | 1.05 | 1.12 |  | 0.934 | 1.05 | 0.792 | 0.416 | 0.457 | 0.423 | 0.392 | 0.216 | 0.988 | 0.879 | 0.93 | 0.688 | 0.774
5 | IA-LM | 0.676 | 0.567 | 0.804 | 0.807 | 0.577 | 0.652 | 0.578 | 0.759 | 0.653 | 0.52 |  |  |  |  |  |  |  |  |  | 
6 | LC-2-ad | 0.399 | 0.342 | 0.377 | 0.422 | 0.357 | 0.906 | 1.03 | 0.813 | 0.654 | 0.208 | 0.488 | 0.499 | 0.55 | 0.58 | 0.29 | 1.31 | 1.05 | 1.14 | 0.672 | 0.692
7 | LCLC-97TM1 | 0.372 | 0.434 | 0.525 | 0.51 | 0.371 | 1.12 | 1.05 | 0.443 | 0.856 | 0.219 | 0.233 | 0.245 | 0.158 | 0.208 | 0.0796 | 0.819 | 0.67 | 0.632 | 0.306 | 0.309
8 | LCLC-103H |  |  |  |  |  |  |  |  |  |  | 0.463 | 0.47 | 0.496 | 0.404 | 0.322 | 0.798 | 0.804 | 0.789 | 0.39 | 0.739
9 | LK-2 | 0.731 | 0.757 | 0.695 | 0.72 | 0.741 | 0.879 | 0.875 | 1.06 | 1.03 | 0.632 | 0.558 | 0.679 | 0.722 | 0.804 | 0.364 | 0.172 | 0.227 | 0.196 | 0.191 | 0.236
10 | LOU-NH91 | 0.683 | 0.588 | 0.627 | 0.63 | 0.452 | 0.763 | 0.719 | 0.664 | 0.808 | 0.572 | 0.565 | 0.524 | 0.55 | 0.537 | 0.436 | 0.349 | 0.323 | 0.373 | 0.328 | 0.349
11 | NCI-H358 |  |  |  |  |  | 0.491 | 0.524 | 0.336 | 0.434 | 0.341 | 0.129 | 0.117 | 0.116 | 0.129 | 0.124 | 0.28 | 0.21 | 0.231 | 0.126 | 0.166
12 | NCI-H441 | 0.857 |  | 0.558 | 0.818 | 0.353 |  |  |  |  |  | 0.212 | 0.237 | 0.233 | 0.171 | 0.183 | 0.368 | 0.29 | 0.321 | 0.327 | 0.263
13 | NCI-H522 |  |  |  |  |  |  |  |  |  |  | 1.01 | 1.03 | 1.26 | 0.99 | 0.863 | 0.984 | 1.26 | 1.27 | 0.957 | 
14 | NCI-H596 | 0.927 | 0.809 | 0.933 | 1.01 | 0.876 | 1.09 | 1.09 | 1.11 | 0.897 | 0.743 |  |  |  |  |  | 1.11 | 1.06 | 0.962 | 0.625 | 1.01
15 | NCI-H650 |  |  |  |  |  | 0.959 | 0.849 | 0.922 | 0.602 | 0.328 | 0.306 | 0.345 | 0.303 | 0.232 | 0.206 | 0.803 | 0.785 | 0.834 | 0.339 | 0.497
16 | NCI-H661 |  |  |  |  |  | 0.539 | 0.466 | 0.532 | 0.442 | 0.308 | 0.457 | 0.408 | 0.337 | 0.326 | 0.344 | 0.973 | 0.694 | 0.658 | 0.412 | 0.486
17 | NCI-H1299 | 1.1 | 1.13 | 1.12 | 1.05 | 1.09 | 0.926 | 0.918 | 0.955 | 0.69 | 0.742 |  |  |  |  |  |  |  |  |  | 
18 | NCI-H1563 |  |  |  |  |  | 1.01 | 0.885 | 0.992 | 0.815 | 0.737 |  |  |  |  |  | 0.56 | 0.511 | 0.589 | 0.485 | 0.529
19 | NCI-H1623 |  |  |  |  |  |  |  |  |  |  |  |  |  |  |  | 0.608 | 0.48 | 0.63 | 0.33 | 
20 | NCI-H1648 |  |  |  |  |  |  |  |  |  |  | 0.287 | 0.283 | 0.266 | 0.26 | 0.242 |  |  |  |  | 
21 | NCI-H1703 | 0.957 | 0.944 | 1.16 | 1.54 | 0.896 | 1.07 | 0.825 | 1.03 | 0.613 | 0.386 |  |  |  |  |  |  |  |  |  | 
22 | NCI-H2342 |  |  |  |  |  |  |  |  |  |  | 0.582 | 0.547 | 0.558 | 0.468 | 0.474 | 0.713 | 0.68 | 0.685 | 0.519 | 0.577
23 | SW 900 |  |  |  |  |  |  |  |  |  |  | 0.582 | 0.558 | 0.519 | 0.396 | 0.237 | 0.204 | 0.182 | 0.169 | 0.145 | 0.154
